For one series, the system named is 6/50 antibody. Nature of the series: Cross-reactivity of 6/50 antibody with OA analogues in competitive ELISA (FIG. 9). Conditions: toxins in 40% MEOH. Type of series: binding, mouse. The method, then:
FIG. 9A Assay wells were coated with OA and incubated with a fixed concentration of 6/50 IgG and varying amounts of each toxin in 40% MEOH.
FIG 9B & 9C Assay wells were coated with purified antiidiotypic antibody (1/59) F(ab')2 fragments (5 μg/ml) and incubated with a fixed concentration of mAb 6/50 (100 ng/ml) and varying amounts of OA analogues in 40% MEOH.
In FIG. 9A, the assay wells were coated with OA and incubated with a fixed concentration of 6/50 IgG and varying amounts of each toxin in 40% MEOH. Bound antibody was detected with HRP-conjugated anti-mouse IgG. Toxins used in this competitive ELISA were generously donated by Dr. Takeshi Yasumoto (Tohoku University, Japan).
For FIG. 9B and 9C, the assay wells were coated with purified anti-idiotypic (1/59) F(ab')2 (5μg/ml) and incubated with a fixed concentration of antibody 6/50 (100 ng/ml) and varying amounts of okadaic acid analogues in 40% MEOH. Bound 6/50 IgG was detected with HRP-conjugated anti-mouse IgG Fc fragment specific antisera.

A short description of a further series: Solubility of OA. Type of series: physicochemical. The text has this:
It is obvious that methanol has a deleterious effect on 6/50 IgG binding to OA since the sensitivity of OA detection in the presence of 40% MeOH drops considerably when compared with 10% MeOH content. The addition of 10% MeOH seems to be the optimal for this assay. Absence of MeOH decreases OA solubility and thus the slope of the standard curve.

Series [1] addresses protein phosphatase-1 (PP1) catalytic subunit. Put plainly: Standard phosphorylase a phosphatase assay, PP1. Type of series: biochemical, rabbit. Conditions: standard commercial preparation of okadaic acid; read-out: IC50 for PP1 inhibition. The method, then: (§1) The biological activity of OA was assayed by the ability of this toxin to inhibit dephosphorylation of ^32 P-radiolabelled glycogen phosphorylase (E.C. 2.4.1.1) by protein phosphatases (E.C. 3.1.3.16) in the standard phosphorylase phosphatase assay.
(§2) Phosphorylase (50 mM) is dialyzed extensively against NaF (15 mM) to block endogenous phosphatase activity. The protein is diluted to 3 mg/ml (30 pmol/μl ) in Tris HCl (50 mM, pH 7.0) containing ethylenediamine tetra-acetic acid (EDTA, 0.1 mM), bovine serum albumin (1 mg/ml), 2-mercaptoethanol (0.2% v/v) and caffeine (15mM). An incubation comprising 10 μl protein phosphatase-1 or -2A (PP2A, 1 mU/ml in Tris HCl, pH 7.0) and 10 μl phosphatase inhibitor (in Tris HCl, pH 7.0) is carried out for 10 minutes at 30° C. An aliquot (10 μl) of phosphorylase (30 pmol/μl, specific radioactivity >0.6×10^6 dpm/nmol) is added to start the reaction, which is terminated after 10 minutes by adding 200 μl trichloroacetic acid (20% w/v,TCA). The suspension is vortexed, stood on ice for 1 minute and centrifuged at 15,000g for 2 minutes. An aliquot (200 μl) of supernatant is added to 1 ml scintillant and counted. One milliunit(mU) of protein phosphatase activity releases 1 nmol phosphate from phosphorylase per minute. […]

Series [2] deals with T1, protein phosphatase-2A (PP2A) catalytic subunit (Oryctolagus cuniculus, UniProt P67777).
T1 construct: Homogeneous PP-1 and -2A catalytic subunits are purified from rabbit skeletal muscle; from tissue; host or cells: rabbit skeletal muscle
Put plainly: Standard phosphorylase a phosphatase assay, PP2A. Type of series: biochemical, rabbit. Conditions: standard commercial preparation of okadaic acid; read-out: IC50 for PP2A inhibition. On the procedure: as §1, §2

A further series has as its system 6/50 IgG. Put plainly: Competitive ELISA, Example IV: solid-phase OA versus free OA for binding to 6/50 IgG. The arrangement: species or system mouse. As to conditions: OA standards 0-30 ng/ml in 10% MeOH. On the procedure:
This assay is based on the competition between solid-phase attached OA and free OA (analyte) for binding to a limited number of binding sites on 6/50 IgG in solution.
Thus, 96-well microtiter plates are coated with 100 μl of OA-OVAL (10 μg/ml) in 0.05M sodium carbonate bicarbonate buffer, pH 9.6, overnight at 4° C. The unbrund OA-OVAL is washed off with Tris-buffered saline and the remaining binding sites are saturated with 200 μl of TS-MILK for one hour at 37° C. After washing, the wells are incubated simultaneously with 50 μl of OA standards (0-30 ng/ml) diluted in 10% MeOH and applied in the presence of 50 μl of limiting amounts of 6/50 IgG for one hour at 37° C. After the unbound antibody and antigen are washed off, 100 μl of a peroxidase conjugated goat anti-mouse IgG antiserum diluted in TS-MILK is added and incubated for one hour at 37° C.
Ihe colorimetric reaction is developed upon the add:tion of 0.03% H2 O2 in 0.1 M sodium citrate buffer, pH 7.0, containing 0.1% OPD. The reaction is stopped with 3 N H2 SO4 and the color intensity measured at a wavelength of 492 nm using a BioRad ELISA reader.

Series [3] has as its system F(ab')2 fragments of 6/50 IgG. Put plainly: Competition ELISA, Example II: free OA versus 1/59 IgG for binding to solid-phase 6/50 F(ab')2. Also noted: species or system mouse. Conditions: free OA 0-10 μg/ml in 10% MeOH, 1/59 500 ng/ml. On the procedure:
In the reverse assay, 96-well microtiter plates are coated with 100 μl of 10 μg/ml of F(ab')2 fragments of 6/50 IgG in 0.05M sodium carbonate bicarbonate buffer, pH 9.6, overnight at 4° C. The unbound F(ab')2 fragments are washed off with Tris-buffered saline and the remaining binding sites are saturated with 200 μl of 1% powdered-milk in Tris-saline (TS-MILK) for one hour at 37° C. After washing, the wells are incubated simultaneously with 50 μl of a fixed amount of anti-idiotypic IgG 1/59 (500 ng/ml) and 50 μl of free OA diluted in 10% methanol (MeOH) at increasing concentrations (0-10 μg/ml) for one hour at 37° C. After the unbound antibody and antigen are washed off, 100 μl of a peroxidase conjugated goat anti-mouse IgG Fc-fragment-specific antiserum is added for one hour at 37° C.
The colorimetric reaction is developed upon the addition of 0.03% H2 O2 in 0.1 M sodium citrate buffer, pH 7.0, containing 0.1% OPD. The reaction is stopped with 3 N H2 SO4 and the color intensity measured at a wavelength of 492 nm using a BioRad® ELISA reader.

The text below walks through data of patent publication US5264556A, “Monoclonal antibodies for measuring okadaic acid” (priority 1992, dated 1993).

pIC50: −log10 of the molar value.

T1 sequence (P67777 whole entry): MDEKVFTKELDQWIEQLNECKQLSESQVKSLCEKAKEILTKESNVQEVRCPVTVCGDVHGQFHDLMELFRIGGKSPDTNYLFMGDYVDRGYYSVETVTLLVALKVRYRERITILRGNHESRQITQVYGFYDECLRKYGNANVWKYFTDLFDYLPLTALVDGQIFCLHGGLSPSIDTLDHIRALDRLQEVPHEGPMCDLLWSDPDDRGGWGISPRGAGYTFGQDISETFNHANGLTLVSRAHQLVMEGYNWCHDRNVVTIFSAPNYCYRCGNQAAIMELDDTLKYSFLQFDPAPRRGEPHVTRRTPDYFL

`C=C1C(C(CC(C)C2OC3(CCCCO3)CCC2C)OC(C)=O)OC2CCC3(CCC(C=CC(C)C4CC(C)=CC5(OC(CC(C)(OC(C)=O)C(=O)O)CCC5OC(C)=O)O4)O3)OC2C1OC(C)=O` (stereo not shown) [tetra acetyl okadaic acid]: in the series on 6/50 antibody, the “binding to 6/50 antibody relative to okadaic acid (cross-reactivity)” value is “significantly lower affinity”.
The same measure, in the same setting: the value for `C=C1C(O)C2OC3(CCC(C=CC(C)C4CC(C)=CC5(OC(CC(C)(O)C(=O)O)CCC5O)O4)O3)CCC2OC1C(O)CC(C)C1OC2(CCC1C)OCCCC2C` (stereo not shown) [DTX-1, 35-methyl-okadaic acid] was “significantly lower affinity”.
Regarding `C=C1[C@@H](O)[C@@H]2O[C@]3(CC[C@H](/C=C/[C@@H](C)[C@@H]4CC(C)=C[C@@]5(O[C@H](C[C@@](C)(O)C(=O)O)CC[C@H]5O)O4)O3)CC[C@H]2O[C@@H]1[C@@H](O)C[C@H](C)[C@H]1O[C@@]2(CCCCO2)CC[C@H]1C` [okadaic acid], the solubility result in “Solubility of OA” is “only soluble in the presence of organic solvents”. For the same compound, the pIC50 is 7.72 in series [1] and 9.70 in series [2]. Also, in the series with 6/50 IgG, the “competition with solid-phase fixed OA for binding to 6/50” value was “dose-dependent manner”. In series [3], the “inhibition of 1/59 IgG binding to solid-phase bound 6/50 IgG F(ab')2” value was “clearly inhibited”.
